According to patent publication US12492210B2, “Tricyclic compounds and their use” (HUTCHISON MEDIPHARMA LIMITED, priority 2019, dated 2025):

Legend:
MAPK1(ERK2) enzyme = molecular target: T1, MAPK1(ERK2) enzyme (Homo sapiens, UniProt P28482); assay: Z-Lyte Kinase Assay of ERK2; assay type: biochemical; conditions: read-out: Example 18 IC50
T1 construct: purchased Invitrogen PV3313
In short: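 FRET-based Z-LYTE assay using ERK2 kinase with Ser/Thr3 peptide; compound tested at 0.00046–1 μM final in 2% DMSO. Kinase reaction ran 1 h at 25-30° C, followed by 1 h development. The coumarin/fluorescein emission ratio (445/520 nm) gave % phosphorylation, and IC50 was fitted from inhibition relative to uninhibited control.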

[1] = system: p-RSK (Thr359) in colo205 cells; assay: p-RSK (Thr359) Acumen Assay in Colo205; assay type: cell-based; conditions: Homo sapiens, COLO 205, 1 hour compound incubation, read-out: Example 19 IC50
In short: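 Colo205 cells (4000/well, seeded overnight in 10% FBS) were exposed 1 hour at 37° C to compound added from a 3–0.001 μM dilution series in 5% DMSO. Cells were then fixed, permeabilised and immunostained for p-RSK Thr359, with PI counterstain. Acumen cytometry gave the percentage of positive cells, normalised to untreated wells and 3 uM GDC0994 wells, for the IC50 fit.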

T1 sequence (P28482 whole entry): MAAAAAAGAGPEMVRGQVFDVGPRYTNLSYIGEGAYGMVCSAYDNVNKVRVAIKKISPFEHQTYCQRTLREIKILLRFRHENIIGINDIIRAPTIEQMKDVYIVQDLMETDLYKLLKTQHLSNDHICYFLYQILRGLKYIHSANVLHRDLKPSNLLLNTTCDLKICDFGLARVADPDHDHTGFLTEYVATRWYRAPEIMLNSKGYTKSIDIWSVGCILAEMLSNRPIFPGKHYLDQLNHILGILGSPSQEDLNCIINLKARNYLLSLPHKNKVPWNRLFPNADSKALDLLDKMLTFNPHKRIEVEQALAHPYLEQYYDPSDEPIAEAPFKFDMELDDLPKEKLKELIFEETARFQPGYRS

| SMILES | IC50 (MAPK1(ERK2) enzyme) [nM] | IC50 [1] [nM] |
| --- | --- | --- |
| Cc1cnc(Nc2ccnn2C)nc1-c1cn2c(n1)-c1nnc(C(F)(F)c3ccccc3Cl)n1[C@H](C)C2 [Compound 221] | ≤ 5 | ≤ 100 |
| Cn1nccc1Nc1nccc(-c2cc3c4nnc(COc5ccccc5Cl)n4ccn3c2)n1 [Compound 40] | ≤ 5 | ≤ 100 |
| Cc1cnc(Nc2nncs2)nc1-c1cc2n(c1)C[C@H](C)n1c-2nnc1C(F)(F)c1ccccc1F [Compound 287] | 5 to 10 | ≤ 100 |
| Cn1nccc1Nc1cc(-c2cc3n(c2)CCCn2c(COc4ccccc4F)nnc2-3)c(Cl)cn1 [Compound 38] | > 10 | ≤ 100 |
| Cc1cnc(Nc2ccnn2C)nc1-c1cc2c3nnc(Cc4cccc(F)c4)n3ccn2c1 [Compound 283] | ≤ 5 | ≤ 100 |
| Cn1nccc1Nc1cc(-c2cc3n(c2)CCCn2c-3nnc2C2(C#N)CCC2)c(Cl)cn1 [Compound 4] | ≤ 5 | > 100 |
| Cn1nccc1Nc1cc(-c2cc3n(c2)CC2(CC2)Cn2c-3nnc2C2(C(C)(F)F)CCC2)c(Cl)cn1 [Compound 136] | > 10 | ≤ 100 |
| Cn1nccc1Nc1nccc(-c2cc3n(c2)CCCn2c(CSc4ccccc4F)nnc2-3)n1 [Compound 19] | ≤ 5 | ≤ 100 |
| C[C@H]1CCn2cc(-c3cc(Nc4ccnn4C)ncc3Cl)cc2-c2nnc(C3(CC(F)(F)F)CCC3)n21 [Compound 160] | ≤ 5 | ≤ 100 |
| Cn1nccc1Nc1cc(-c2cc3n(c2)CC2(COC2)Cn2c-3nnc2C(F)(F)C(F)F)c(Cl)cn1 [Compound 304, 5-chloro-N-(1-methyl-1H-pyrazol-5-yl)-4-(3′-(1,1,2,2-tetrafluoroethyl)-5′H,7′H-spiro[oxetane-3,6′-pyrrolo[1,2-a][1,2,4]triazolo[3,4-c][1,4]diazepin]-10′-yl)pyridin-2-amine] | ≤ 5 | ≤ 100 |
| Cn1nccc1Nc1cc(-c2cc3n(c2)CC(F)(F)Cn2c-3nnc2C(C)(C)C(F)(F)F)c(Cl)cn1 [Compound 146] | ≤ 5 | ≤ 100 |
| C[C@H]1CCn2cc(-c3cc(Nc4ccnn4C)ncc3Cl)cc2-c2nnc(C3(C(C)(F)F)CCC3)n21 [Compound 105] | 5 to 10 | ≤ 100 |
| Cn1nccc1Nc1cc(-c2cc3n(c2)CCCn2c-3nnc2C2(C(F)(F)F)CCCC2)c(Cl)cn1 [Compound 31] | 5 to 10 | ≤ 100 |
| Cc1cnc(Nc2ccnn2C)nc1-c1cc2n(c1)CCn1c-2nnc1C(F)(F)c1ccccc1Cl [Compound 94] | ≤ 5 | ≤ 100 |
| Cc1cnc(Nc2ccnn2C)nc1-c1cc2c3nnc(C4(C(F)F)CCC4)n3ccn2c1 [Compound 45] | ≤ 5 | ≤ 100 |
| CCc1cnc(Nc2ccnn2C)cc1-c1cc2n(c1)C[C@H](OC)Cn1c-2nnc1C1(C(F)(F)F)CCC1 [Compound 147] | ≤ 5 | > 100 |
| Cn1nccc1Nc1ncc(Cl)c(-c2cc3n(c2)CCCn2c(COc4ccccc4F)nnc2-3)n1 [Compound 211, 5-chloro-4-(3-((2-fluorophenoxy)methyl)-6,7-dihydro-5H-pyrrolo[1,2-a][1,2,4]triazolo[3,4-c][1,4]diazepin-10-yl)-N-(1-methyl-1H-pyrazol-5-yl)pyrimidin-2-amine] | 5 to 10 | ≤ 100 |
| C[C@H]1Cn2cc(-c3ccnc(Nc4ccnn4C(F)F)n3)nc2-c2nnc(C(F)(F)c3ccccc3Cl)n21 [Compound 227] | ≤ 5 | ≤ 100 |

More lines, now with the values ahead:

| IC50 (MAPK1(ERK2) enzyme) [nM] | IC50 [1] [nM] | SMILES |
| --- | --- | --- |
| 5 to 10 | ≤ 100 | Cn1nccc1Nc1cc(-c2cc3n(c2)C[C@H](C(F)F)n2c-3nnc2C(F)(F)n2cc(Cl)cn2)c(Cl)cn1 [Compound 209] |
| 5 to 10 | ≤ 100 | COCCn1nccc1Nc1ncc(C)c(-c2cc3n(c2)C[C@H](C)n2c-3nnc2C(F)(F)c2ccccc2F)n1 [Compound 296] |
| 5 to 10 | ≤ 100 | Cn1nccc1Nc1cc(-c2cc3n(c2)C[C@H](CF)n2c-3nnc2C(F)(F)c2ccon2)c(Cl)cn1 [Compound 112] |
| ≤ 5 | ≤ 100 | Cn1nccc1Nc1cc(-c2cc3n(c2)C[C@H](CF)n2c-3nnc2C(F)(F)C(F)F)c(F)cn1 [Compound 63] |
| 5 to 10 | ≤ 100 | Cn1nccc1Nc1cc(-c2cc3n(c2)C[C@H](CF)n2c-3nnc2C(F)(F)c2ccccc2F)ccn1 [Compound 96] |
| 5 to 10 | ≤ 100 | Cn1nccc1Nc1ncc(F)c(-c2cc3n(c2)C[C@H](CF)n2c-3nnc2C(F)(F)c2ccccc2Cl)n1 [Compound 193] |
| 5 to 10 | ≤ 100 | Cn1nccc1Nc1cc(-c2cc3n(c2)C[C@H](Cc2ccccc2)n2c(CCC(F)(F)F)nnc2-3)c(Cl)cn1 [Compound 203] |
| ≤ 5 | ≤ 100 | Cc1cnc(Nc2ccnn2C)cc1-c1cc2n(c1)C[C@H](CF)n1c-2nnc1C(F)(F)C(F)F [Compound 62] |
| > 10 | ≤ 100 | Cc1cnc(Nc2ccnn2C)cc1-c1cc2n(c1)C[C@H](CF)n1c-2nnc1C(F)(F)c1c(F)cccc1F [Compound 185] |
| ≤ 5 | > 100 | CCC(F)(F)c1nnc2n1[C@@H](CF)Cn1cc(-c3cc(Nc4ccnn4C)ncc3C)cc1-2 [Compound 57] |
| ≤ 5 | ≤ 100 | Cc1cnc(Nc2ccnn2C)cc1-c1cc2n(c1)C[C@H](C(F)F)n1c-2nnc1C(F)(F)n1cc(Cl)cn1 [Compound 198] |
| ≤ 5 | ≤ 100 | Cn1nccc1Nc1cc(-c2cc3n(c2)C[C@H](F)Cn2c-3nnc2C2(C(F)(F)F)CCC2)c(F)cn1 [Compound 85] |
| ≤ 5 | ≤ 100 | COC[C@H]1Cn2cc(-c3nc(Nc4ccnn4C)ncc3C)nc2-c2nnc(C(F)(F)c3ccccc3F)n21 [Compound 223] |
| ≤ 5 | ≤ 100 | Cn1nccc1Nc1nccc(-c2cc3n(c2)C[C@H](CF)n2c-3nnc2C(F)(F)c2ccccc2F)n1 [Compound 100] |
| ≤ 5 | ≤ 100 | Cc1cnc(Nc2ccnn2C)cc1-c1cc2n(c1)C[C@H](CF)n1c-2nnc1C1(C(F)(F)F)CCC1 [Compound 82] |
| > 10 | ≤ 100 | Cc1cnc(Nc2ccnn2C)cc1-c1cc2n(c1)C[C@H](C(F)F)n1c-2nnc1C(F)(F)c1ccccc1Cl [Compound 204] |
| ≤ 5 | > 100 | Cn1nccc1Nc1cc(-c2cc3n(c2)C[C@H](CF)n2c-3nnc2C(F)(F)C(F)(F)F)c(Cl)cn1 [Compound 114] |
| 5 to 10 | ≤ 100 | Cn1nccc1Nc1ncc(F)c(-c2cc3n(c2)C[C@H](CF)n2c-3nnc2C(F)(F)c2ccccc2F)n1 [Compound 148] |
| 5 to 10 | ≤ 100 | Cc1cnc(Nc2ccnn2C)cc1-c1cc2n(c1)C[C@H](CF)n1c-2nnc1C(F)(F)c1ccccc1F [Compound 126] |
| ≤ 5 | ≤ 100 | Cn1nccc1Nc1cc(-c2cc3n(c2)C[C@H](F)Cn2c-3nnc2C(F)(F)C(F)F)c(Cl)cn1 [Compound 80] |
| ≤ 5 | ≤ 100 | Cc1cnc(Nc2ccnn2C)cc1-c1cc2n(c1)CCCn1c-2nnc1C1(C(F)(F)F)CC1 [Compound 233] |
| > 10 | ≤ 100 | Cn1nccc1Nc1cc(-c2cc3n(c2)C[C@H](CF)n2c-3nnc2C(F)(F)c2ccccc2)c(Cl)cn1 [Compound 137] |
| ≤ 5 | ≤ 100 | Cn1nccc1Nc1cc(-c2cc3n(c2)C[C@H](CF)n2c-3nnc2C(F)(F)c2ccccn2)c(Cl)cn1 [Compound 141] |
